Measurements published in US20180333491A1 (Sinotau Pharmaceuticals Group, priority 2015, published 2018).
Marks after values point to notes of the source that are not given here.

Experiments:
[1] = tested on: human pancreatic cancer tumor cells MIA-PaCa-2; assay: MIA-PaCa-2 subcutaneous model; details: for Tumor Volume (cm^3) Mean ± SEM: 34 days of treatment; for bodyweights: MIA-PaCa-2 model, over the treatment time; for Time of tumor volume changed significantly: days after first treatment; for Tumor weight (g) Mean ± SEM: end of experiment
Description: (§7) The bodyweight and major/minor axis of the mice were measured twice a week, and the tumor volumes were calculated using the formula: Tumor volume=1/2×major axis×minor axis. […] “T” represents average tumor volume of the experimental group (cm^3), and “C” represents average tumor volume of the control group (cm^3). The animals were monitored at all times. The bodyweight and major/minor axis or mice were measured twice a week. When the experiments were concluded, mice were sacrificed and tumors were extracted and weighted.
(§8) Tumor volumes were represented with average ±standard error. Data analysis was done using Spss16.0, One-Way ANOVA, LSD (homogeneity of variance) or Dunnett T3 (non-homogeneity of variance). […] P<0.05 represents significant difference.

[2] = tested on: BXPC3; assay: Cytotoxicity on human tumor cell lines (ATPLite); type: cell-based
Description: (§1) Eighteen human tumor cell lines were treated with 62.5, 125, 250, 500, or 1000 ng/mL HuCTB006 or different concentrations of chemotherapy drugs, which act as positive controls. […] The culture medium for SK-Hep-1, HepG2, HCT116, SW480, WiDr (1×NEAA), MIA-PaCa-2 (2.5% Horse serum) MDA-MB-231 (1 mM NaPyr, 1×MEM-NEAA, 1×MEM VITAMIN) was DMEM. The culture medium for COLO205, BXPC3 (2 mM glutamin, 10 mM HEPES), Panc2.03 (15FBS, 1 mM NaPyr, 1×MEM-NEAA, […], 10 mM HEPES), H2122, OVCAR3 (1 mM NaPyr, 10 ug/ml human insulin, 10 mM HEPES, 2.5 g/L glucose), Molt-4 (HEPES, 2.5 g/l glocose), Jurkat (HEPES, 2.5 g/l glocose) was RPMI-1640, the culture medium for SK-MES-1 was Eagle's MEM, the culture medium for 2-LMP and DY36T2 was IMEM, and the culture medium for SUM102 (5 ug/ml insulin) was F-12K. The cell viability was determined by ATPLite Assay Kit. If the IC50 value was lower than 62.5 ng/mL, the cells were treated with higher concentration of CTB006 in the second round of experiments to determine IC50 value.

[3] = tested on: Jurkat; assay: Cytotoxicity on human tumor cell lines (ATPLite); type: cell-based
Description: as §1

[4] = tested on: MDA-MB-231; assay: Cytotoxicity on human tumor cell lines (ATPLite); type: cell-based
Description: as §1

[5] = tested on: COLO205; assay: Cytotoxicity on human tumor cell lines (ATPLite); type: cell-based
Description: as §1

[6] = tested on: human colon cancer tumor cells Widr; assay: WiDr subcutaneous model; type: in vivo, nude mice; details: for Tumor Volume (cm^3) Mean ± SEM / TGI (Calculated using tumor volume): Day 27 after treatment; for TGI (Calculated using tumor volume): listed as HuTB006; for Tumor weight (g) Mean ± SEM: end of experiment
Description: (§2) Tumor cells (i.e., MIA-PaCa-2, WiDr, H2122, colo205) were inoculated in nude mice's flank at 5×10^6 cells per mouse. The mice were grouped when the average volume of tumors reached about 100˜200 mm^3. “QW”=weekly dose. “Q3d”=dosed every third day. “BiW”=biweekly.
(§3) The bodyweight and major/minor axis of the mice were measured twice a week, and the tumor volumes were calculated using the formula: Tumor volume=1/2×major axis[…]. […] “T” represents average tumor volume of the experimental group (cm^3), and “C” represents average tumor volume of the control group (cm^3). The animals were monitored at all times. The bodyweight and major/minor axis or mice were measured twice a week.
(§4) Tumor volumes were represented with average ±standard error. […] P<0.05 represents significant difference.

[7] = tested on: human colon cancer tumor cells Colo205; assay: Colo205 subcutaneous model; type: in vivo, nude mice; details: for Tumor Volume (cm^3) Mean ± SEM / TGI (Calculated using tumor volume): Day 28 after treatment; for Time of tumor volume changed significantly: days after first treatment; for Tumor weight (g) Mean ± SEM / TGI (Calculated using tumor weight): end of experiment
Description: as §2, §3, §4

[8] = tested on: human lung cancer tumor cells H2122; assay: H2122 subcutaneous model; details: for Tumor Volume (cm^3) Mean ± SEM: Day 38 after treatment; for Tumor weight (g) Mean ± SEM: end of experiment
Description: as §7, §8

[9] = molecular target: T1, DcR1 (recombinant human TRAIL R3/TNFRSF10C) (Homo sapiens, UniProt O14798); assay: CLEIA binding specificity; details: DcR1-His coated; antibody 200, 40 and 8 ng/mL
T1 construct: His; purchased Novoprotein Science Lot: 0328670
T1 sequence (O14798 26-236): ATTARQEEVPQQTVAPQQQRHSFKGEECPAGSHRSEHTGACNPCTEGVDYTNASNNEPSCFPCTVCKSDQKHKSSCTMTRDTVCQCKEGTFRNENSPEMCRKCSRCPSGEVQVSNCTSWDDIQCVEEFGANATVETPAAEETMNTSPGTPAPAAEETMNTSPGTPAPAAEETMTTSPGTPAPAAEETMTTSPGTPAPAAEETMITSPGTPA
Description: (§5) The binding specificity of HuCTB006 was evaluated by chemiluminescent enzyme immunoassay (CLEIA).
(§6) HuCTB006 was diluted into 200, 40 and 8 ng/mL and then added to the wells. After 1 hour incubation in 37° C., the plate was washed. The binding of HuCTB006 with immobilized antigens was detected with HRP labeled secondary antibody and a substrate solution.

[10] = molecular target: T2, OPG (recombinant human osteroprotegerin/TNFRSF11B) (Homo sapiens, UniProt O00300); assay: CLEIA binding specificity; details: OPG-His coated; antibody 200, 40 and 8 ng/mL
T2 construct: His; purchased Wuxi Pharmatech Co. Ltd Lot: 20120717
T2 sequence (O00300 22-401): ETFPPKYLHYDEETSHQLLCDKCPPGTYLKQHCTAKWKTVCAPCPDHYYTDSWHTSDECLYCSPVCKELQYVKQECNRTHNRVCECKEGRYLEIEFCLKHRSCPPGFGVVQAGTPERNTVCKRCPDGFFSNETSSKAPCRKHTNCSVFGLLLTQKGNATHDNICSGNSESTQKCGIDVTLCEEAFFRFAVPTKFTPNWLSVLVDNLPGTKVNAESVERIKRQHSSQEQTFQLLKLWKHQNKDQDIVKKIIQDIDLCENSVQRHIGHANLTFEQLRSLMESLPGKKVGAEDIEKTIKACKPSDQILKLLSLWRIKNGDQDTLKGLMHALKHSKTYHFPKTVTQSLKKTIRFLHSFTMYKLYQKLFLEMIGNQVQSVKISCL
Description: as §5, §6

[11] = molecular target: T3, DcR2 (recombinant human TRAIL R4/TNFRSF10D) (Homo sapiens, UniProt Q9UBN6); assay: CLEIA binding specificity; details: DcR2-His coated; antibody 200, 40 and 8 ng/mL
T3 construct: His; purchased Sino Biological Lot: LC06JU1502
T3 sequence (Q9UBN6 56-386): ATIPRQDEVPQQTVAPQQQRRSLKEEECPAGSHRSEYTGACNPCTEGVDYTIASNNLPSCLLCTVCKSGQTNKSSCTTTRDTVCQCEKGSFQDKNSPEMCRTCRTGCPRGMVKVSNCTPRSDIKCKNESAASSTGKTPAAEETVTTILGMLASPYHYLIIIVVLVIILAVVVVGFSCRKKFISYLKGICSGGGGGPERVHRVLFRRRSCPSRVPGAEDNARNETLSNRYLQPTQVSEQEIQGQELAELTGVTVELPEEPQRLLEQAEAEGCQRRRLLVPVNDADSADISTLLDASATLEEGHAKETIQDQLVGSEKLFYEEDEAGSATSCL
Description: as §5, §6

[12] = molecular target: T4, DR4 (Homo sapiens, UniProt O00220); assay: CLEIA binding specificity; details: DR4-His-EC coated; antibody 200, 40 and 8 ng/mL
T4 construct: His; Lot: 090222-P; host or cells: E. coli
Description: as §5, §6

[13] = HuCTB006 0.6 mg/kg i.v., 0.6 mg/kg
[14] = HuCTB006 1.8 mg/kg i.v., 1.8 mg/kg
[15] = HuCTB006 5.4 mg/kg i.v., 5.4 mg/kg

## Nc1ccn([C@@H]2O[C@H](CO)[C@@H](O)C2(F)F)c(=O)n1 [Gemcitabine, reference compound]
[1]; Gemcitabine 60 mg/kg i.p.
  Tumor Volume (cm^3) Mean ± SEM: 1.60 ± 0.11 cm^3
[1]
  bodyweights: decreased significantly by the third dosing
[1]; first experiment
  tumor regression: not found
[1]; repeated experiment
  tumor regression: not found

## HuCTB006: Monospecific humanized chimeric monoclonal antibody directed to TRAIL-R2 receptor; heavy chain SEQ ID NO: 16, light chain SEQ ID NO: 14
[1]; HuCTB006 0.2 mg/kg i.v.
  Tumor Volume (cm^3) Mean ± SEM: 1.76 ± 0.15 cm^3
  Time of tumor volume changed significantly: 13 days
  Tumor weight (g) Mean ± SEM: 0.79 ± 0.07 g
[1]; HuCTB006 0.6 mg/kg i.v.
  Tumor Volume (cm^3) Mean ± SEM: 1.27 ± 0.43 cm^3
  Tumor weight (g) Mean ± SEM: 0.54 ± 0.21 g
[1]; HuCTB006 1 mg/kg i.v.
  Tumor Volume (cm^3) Mean ± SEM: 0.88 ± 0.35 cm^3
  Tumor weight (g) Mean ± SEM: 0.37 ± 0.19 g
[1]; HuCTB006 10 mg/kg i.v.
  Tumor Volume (cm^3) Mean ± SEM: 0.76 ± 0.22 cm^3
  Time of tumor volume changed significantly: 7^2 days
  Tumor weight (g) Mean ± SEM: 0.19 ± 0.08 g
[1]
  bodyweights: slow increase
[2]
  IC50: ~0.01 µg/mL
[3]
  IC50: ~0.01 µg/mL
[4]
  IC50: ~0.01 µg/mL
[5]
  IC50: ~0.01 µg/mL
[6]; HuCTB006 0.07 mg/kg i.v.
  Tumor Volume (cm^3) Mean ± SEM: 1.76 ± 0.18 cm^3
  TGI (Calculated using tumor volume): 6.61%^1
  Tumor weight (g) Mean ± SEM: 1.29 ± 0.18 g
[6]; HuCTB006 0.22 mg/kg i.v.
  Tumor Volume (cm^3) Mean ± SEM: 1.54 ± 0.18 cm^3
  TGI (Calculated using tumor volume): 18.71%^ac
  Tumor weight (g) Mean ± SEM: 1.16 ± 0.13 g
[6]; HuCTB006 0.67 mg/kg i.v.
  Tumor Volume (cm^3) Mean ± SEM: 0.96 ± 0.10 cm^3
  Tumor weight (g) Mean ± SEM: 0.68 ± 0.08 g
[6]; HuCTB006 2 mg/kg i.v.
  Tumor Volume (cm^3) Mean ± SEM: 0.80 ± 0.11 cm^3
  Tumor weight (g) Mean ± SEM: 0.53 ± 0.08 g
[7]; HuCTB006 0.2 mg/kg i.v.
  Tumor Volume (cm^3) Mean ± SEM: 1.24 ± 0.20 cm^3
  Time of tumor volume changed significantly: 10 days
  Tumor weight (g) Mean ± SEM: 0.84 ± 0.14 g
[7]; HuCTB006 0.6 mg/kg i.v.
  TGI (Calculated using tumor volume): 84.78%
  Tumor Volume (cm^3) Mean ± SEM: 0.29 ± 0.13 cm^3
  TGI (Calculated using tumor weight): 84.07%
  Tumor weight (g) Mean ± SEM: 0.20 ± 0.10 g
[7]; [13]
  TGI (Calculated using tumor volume): 84.78%*
  TGI (Calculated using tumor weight): 84.07%*
[7]; HuCTB006 1.8 mg/kg i.v.
  TGI (Calculated using tumor volume): 80.07%
  Tumor Volume (cm^3) Mean ± SEM: 0.38 ± 0.16 cm^3
  TGI (Calculated using tumor weight): 81.78%
  Tumor weight (g) Mean ± SEM: 0.23 ± 0.12 g
[7]; [14]
  TGI (Calculated using tumor volume): 80.07%*
  TGI (Calculated using tumor weight): 81.78%*
[7]; HuCTB006 5.4 mg/kg i.v.
  TGI (Calculated using tumor volume): 85.24%
  Tumor Volume (cm^3) Mean ± SEM: 0.28 ± 0.10 cm^3
  Time of tumor volume changed significantly: 7~10^2 days
  TGI (Calculated using tumor weight): 88.15%
  Tumor weight (g) Mean ± SEM: 0.15 ± 0.07 g
[7]; [15]
  TGI (Calculated using tumor volume): 85.24%*
  TGI (Calculated using tumor weight): 88.15%*
[8]; HuCTB006 0.2 mg/kg i.v.
  Tumor Volume (cm^3) Mean ± SEM: 1.85 ± 0.15 cm^3
  Tumor weight (g) Mean ± SEM: 1.54 ± 0.09 g
[8]; HuCTB006 0.6 mg/kg i.v.
  Tumor Volume (cm^3) Mean ± SEM: 1.02 ± 0.31 cm^3
  Tumor weight (g) Mean ± SEM: 0.89 ± 0.29 g
[8]; HuCTB006 1.8 mg/kg i.v.
  Tumor Volume (cm^3) Mean ± SEM: 0.16 ± 0.16 cm^3
  Tumor weight (g) Mean ± SEM: 0.12 ± 0.12 g
[8]; HuCTB006 5.4 mg/kg i.v.
  Tumor Volume (cm^3) Mean ± SEM: 0.18 ± 0.18 cm^3
  Tumor weight (g) Mean ± SEM: 0.19 ± 0.18 g
[9]
  cross-reaction with coated antigen (CLEIA): no cross-reaction
[10]
  cross-reaction with coated antigen (CLEIA): no cross-reaction
[11]
  cross-reaction with coated antigen (CLEIA): no cross-reaction
[12]
  cross-reaction with coated antigen (CLEIA): no cross-reaction
